Tests used:
[1] = Fluorescence of modified Rhodamine dyes (spectrometry and spectrofluorometry); type: physicochemical
Method: Modified Rhodamine dyes were evaluated using both conventional spectrometry and spectrofluorometry. For both types of analysis the dyes were dissolved in either methanol or 50 mM Tris at final dye concentrations ranging from 10 nM to 100 μM. An absorbance spectrum from wavelengths of 200 nm to 700 nm was determined for each dye using a Beckman DU-7000 spectrophotometer. The dyes all had absorbance peaks at around 470 to 480 nm. This wavelength was chosen as the fluorescence excitation wavelength and a full fluorescence emission spectrum was determined using a Hitachi F-2000 spectrofluorometer. For each dye, the emission peak was around 520 nm and the fluorescent output was measured under the conditions tested (see Table 1).

HL-60 cells = test: Uptake and retention of modified Rhodamine dyes by HL-60 cells (epifluorescence microscopy); type: cell-based; settings: 10 μM or 50 μM dye; for staining of HL-60 cells: 37° C., serum-free Iscove's medium; for leakage of the dye into the medium / retention in cells: after washing
Method: HL-60 cells were placed in 5 ml of Iscove's medium (without serum or phenol-red) containing 10 μM or 50 μM N-octyloxycarbonyl-Rhodamine 110, N-decyloxycarbonyl-Rhodamine-110, N-dodecyloxycarbonyl-Rhodamine-110, N-hexyloxycarbonyl-Rhodamine-110, N-(ethylthio)carbonyl-Rhodamine 110 or Rhodamine 110. The cells were incubated for varying times at 37° C. in a CO2 incubator, recovered by centrifugation, and washed in 50 mL of ice-cold medium. The cells were re-centrifuged and the final pellet was resuspended in 50 μL of fresh medium. Aliquots of each cell suspension were placed in microslides and viewed on a Nikon inverted microscope with epifluorescent illumination.

| Compound | Peak Emission Wavelength ([1]; Test Conc. 1 μM, Tris) | Peak Excitation Wavelength ([1]; Test Conc. 1 μM, Tris) | Signal Amplitude ([1]; Test Conc. 1 μM, Tris) | also measured |
| --- | --- | --- | --- | --- |
| COCCOCCOCCOC(=O)Nc1ccc2c(c1)Oc1cc(N)ccc1C21OC(=O)c2ccccc21 (stereo not shown) [N-(2,5,8-Trioxadecyloxycarbonyl)-Rhodamine 110] | 520 nm | 485 nm | 2841 | – |
| CCCCOCCOC(=O)Nc1ccc2c(c1)Oc1cc(N)ccc1C21OC(=O)c2ccccc21 (stereo not shown) [N-(2-Butoxyethoxy)carbonyl-Rhodamine 110, N-(2-Butoxyethoxycarbonyl)-Rhodamine 110] | 520 nm | 470 nm | 2047 | – |
| CCSC(=O)Nc1ccc2c(c1)Oc1cc(N)ccc1C21OC(=O)c2ccccc21 (stereo not shown) [N-(Ethylthio)carbonyl-Rhodamine 110] | 520 nm | 490 nm | 2430 | staining of HL-60 cells (HL-60 cells): moderate, but still easily detectable staining; leakage of the dye into the medium / retention in cells (HL-60 cells): slight leakage |
| CCCCCCSC(=O)Nc1ccc2c(c1)Oc1cc(N)ccc1C21OC(=O)c2ccccc21 (stereo not shown) [N-(Hexylthio)carbonyl-Rhodamine 110] | – | – | – | Peak Emission Wavelength ([1]; Test Conc. 1 μM, MeOH): 530 nm; Peak Excitation Wavelength ([1]; Test Conc. 1 μM, MeOH): 490 nm; Signal Amplitude ([1]; Test Conc. 1 μM, MeOH): 650 |
| CCCCCCN(C)C(=O)Nc1ccc2c(c1)Oc1cc(N)ccc1C21OC(=O)c2ccccc21 (stereo not shown) [N-(N-Hexyl-N-methylcarbamyl)-Rhodamine 110] | 520 nm | 470 nm | 1466 | – |
| CCCCCCCCSC(=O)Nc1ccc2c(c1)Oc1cc(N)ccc1C21OC(=O)c2ccccc21 (stereo not shown) [N-(Octylthio)carbonyl-Rhodamine 110, N-(Octylthio)carbonyl Rhodamine 110] | – | – | – | Peak Emission Wavelength ([1]; Test Conc. 1 μM, MeOH): 520 nm; Peak Excitation Wavelength ([1]; Test Conc. 1 μM, MeOH): 470 nm; Signal Amplitude ([1]; Test Conc. 1 μM, MeOH): 471 |
| CCCCCCCCCCOC(=O)Nc1ccc2c(c1)Oc1cc(N)ccc1C21OC(=O)c2ccccc21 (stereo not shown) [N-Decyloxycarbonyl-Rhodamine 110, N-Decyloxycarbonyl-Rhodamine-110] | – | – | – | staining of HL-60 cells (HL-60 cells): stained HL-60 cells intensely; leakage of the dye into the medium / retention in cells (HL-60 cells): almost no leakage of the dye into the medium; Peak Emission Wavelength ([1]; Test Conc. 1 μM, MeOH): 520 nm; Peak Excitation Wavelength ([1]; Test Conc. 1 μM, MeOH): 475 nm; Signal Amplitude ([1]; Test Conc. 1 μM, MeOH): 827 |
| CN(C)C(=O)Nc1ccc2c(c1)Oc1cc(N)ccc1C21OC(=O)c2ccccc21 (stereo not shown) [N-Dimethylcarbamyl-Rhodamine-110, N-Dimethylcarbamyl-Rhodamine 110] | – | – | – | Peak Emission Wavelength ([1]; Test Conc. 0.1 μM, Tris): 520 nm; Peak Excitation Wavelength ([1]; Test Conc. 0.1 μM, Tris): 490 nm; Signal Amplitude ([1]; Test Conc. 0.1 μM, Tris): 446 |
| CCOC(=O)Nc1ccc2c(c1)Oc1cc(N)ccc1C21OC(=O)c2ccccc21 (stereo not shown) [N-Ethoxycarbonyl-Rhodamine 110] | 520 nm | 485 nm | 3070 | – |
| COC(=O)Nc1ccc2c(c1)Oc1cc(N)ccc1C21OC(=O)c2ccccc21 (stereo not shown) [N-Methoxycarbonyl-Rhodamine 110] | – | – | – | Peak Emission Wavelength ([1]; Test Conc. 0.1 μM, Tris): 520 nm; Peak Excitation Wavelength ([1]; Test Conc. 0.1 μM, Tris): 470 nm; Signal Amplitude ([1]; Test Conc. 0.1 μM, Tris): 254 |
| CS(=O)(=O)Nc1ccc2c(c1)Oc1cc(N)ccc1C21OC(=O)c2ccccc21 (stereo not shown) [N-Methylsulfonyl-Rhodamine-110, N-Methylsulfonyl-Rhodamine 110] | 520 nm | 485 nm | 988 | – |
| N-Acetyl-Rhodamine 116 | 530 nm | 470 nm | 644 | – |

From patent publication US6759207B2, “Fluorogenic or fluorescent reporter molecules and their applications for whole-cell fluorescence screening assays for caspases and other enzymes and the use thereof” (Cytovia, Inc., priority 1997, dated 2004)
